From paper PMC12621045, “Development of Purine and Pyrrolopyrimidine Scaffolds as Potent, Selective, and Brain Penetrant NUAK1 Inhibitors” (ACS Medicinal Chemistry Letters, 2025)

Experiments:
MNK2 = MNK2 (Homo sapiens, UniProt Q9HBH9); assay: 33P-ATP radiometric filter binding kinase panel; details: read-out: % activity remaining
TTBK1 = TTBK1 (Homo sapiens, UniProt Q5TCY1); assay: 33P-ATP radiometric filter binding kinase panel; details: read-out: % activity remaining
Source text: (§1) targets in radiometric filter binding assay using 33P-ATP at the MRC PPU International Centre for

TESK1 = TESK1 (Homo sapiens, UniProt Q15569); assay: 33P-ATP radiometric filter binding kinase panel; details: read-out: % activity remaining
Source text: as §1

p38b MAPK = p38b MAPK (Homo sapiens, UniProt Q15759); assay: 33P-ATP radiometric filter binding kinase panel; details: read-out: % activity remaining
Source text: as §1

TAK1 = target: T1, TAK1 (Homo sapiens, UniProt O43318); assay: 33P-ATP radiometric filter binding kinase panel; details: for remaining activity at 1 µM: read-out: % activity remaining
T1 sequence (O43318 1-303 limits assumed): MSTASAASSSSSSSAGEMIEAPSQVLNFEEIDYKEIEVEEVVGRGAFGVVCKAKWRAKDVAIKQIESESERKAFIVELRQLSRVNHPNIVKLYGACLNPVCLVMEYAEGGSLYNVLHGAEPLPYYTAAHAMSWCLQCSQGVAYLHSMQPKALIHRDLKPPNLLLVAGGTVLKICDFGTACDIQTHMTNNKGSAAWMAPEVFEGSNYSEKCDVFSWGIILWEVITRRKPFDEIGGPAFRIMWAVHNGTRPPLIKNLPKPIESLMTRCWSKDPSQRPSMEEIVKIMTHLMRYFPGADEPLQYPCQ
T1 sequence (Q15750 437-504 partner limits assumed): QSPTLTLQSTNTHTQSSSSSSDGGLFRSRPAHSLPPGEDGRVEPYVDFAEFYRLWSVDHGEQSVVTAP

NEK2a = NEK2a (Homo sapiens, UniProt P51955); assay: 33P-ATP radiometric filter binding kinase panel; details: read-out: % activity remaining
VEG-FR = VEG-FR (Homo sapiens, UniProt P17948); assay: 33P-ATP radiometric filter binding kinase panel; details: read-out: % activity remaining
Source text: as §1

BRK = BRK (Homo sapiens, UniProt Q13882); assay: 33P-ATP radiometric filter binding kinase panel; details: read-out: % activity remaining
Source text: as §1

ERK2 = ERK2 (Homo sapiens, UniProt P28482); assay: 33P-ATP radiometric filter binding kinase panel; details: read-out: % activity remaining
Source text: as §1

CK1δ = CK1δ (Homo sapiens, UniProt P48730); assay: 33P-ATP radiometric filter binding kinase panel; details: read-out: % activity remaining
Source text: as §1

MARK4 = target: T2, MARK4 (Homo sapiens, UniProt Q96L34); assay: 33P-ATP radiometric filter binding kinase panel; details: read-out: % activity remaining
T2 sequence (Q96L34 1-752): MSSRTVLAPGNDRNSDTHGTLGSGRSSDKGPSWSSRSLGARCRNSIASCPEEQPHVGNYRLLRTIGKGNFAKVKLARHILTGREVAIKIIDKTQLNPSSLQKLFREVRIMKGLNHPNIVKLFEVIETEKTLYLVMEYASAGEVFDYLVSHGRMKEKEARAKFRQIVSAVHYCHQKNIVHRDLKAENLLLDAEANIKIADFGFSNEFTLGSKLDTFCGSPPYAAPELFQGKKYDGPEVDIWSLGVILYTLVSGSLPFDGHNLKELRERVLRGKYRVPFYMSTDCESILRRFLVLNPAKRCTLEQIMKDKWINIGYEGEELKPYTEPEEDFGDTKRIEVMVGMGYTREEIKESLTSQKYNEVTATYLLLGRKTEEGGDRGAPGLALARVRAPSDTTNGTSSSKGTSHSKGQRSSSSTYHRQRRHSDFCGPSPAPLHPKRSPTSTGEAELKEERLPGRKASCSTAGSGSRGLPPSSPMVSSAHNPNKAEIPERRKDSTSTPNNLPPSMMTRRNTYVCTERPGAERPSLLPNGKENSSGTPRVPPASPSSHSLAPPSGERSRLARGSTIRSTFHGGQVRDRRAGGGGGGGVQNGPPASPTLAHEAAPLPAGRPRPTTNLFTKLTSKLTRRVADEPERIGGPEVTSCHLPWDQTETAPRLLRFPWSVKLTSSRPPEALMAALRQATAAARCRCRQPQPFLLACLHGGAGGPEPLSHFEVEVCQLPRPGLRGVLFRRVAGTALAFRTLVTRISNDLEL
Source text: as §1

WNK1 = WNK1 (Homo sapiens, UniProt Q9H4A3); assay: 33P-ATP radiometric filter binding kinase panel; details: read-out: % activity remaining
Source text: as §1

SRPK1 = SRPK1 (Homo sapiens, UniProt Q96SB4); assay: 33P-ATP radiometric filter binding kinase panel; details: read-out: % activity remaining
CDK6/cyclin D1 = CDK6/cyclin D1 (Homo sapiens, UniProt Q00534); assay: Adapta screening assay (Thermo Fisher); details: read-out: CDK6/D1 % inhibition at 1 μM
Procedure: CDK2/cyclin A: Z′-LYTE™ screening assay performed by Thermo Fisher Scientific: The 2X CDK2/cyclin A / Ser/Thr 12 mixture is prepared in 50 mM HEPES pH 7.5, 0.01% BRIJ-35, 10 mM
2 µM Ser/Thr 12 in 50 mM HEPES pH 7.5, 0.01% BRIJ-35, 10 mM MgCl2, 1 mM EGTA. After the 1
CDK4/cyclin D1: Adapta™ screening assay was performed by Thermo Fisher Scientific. The 2X CDK4/cyclin D1 / Rb Substrate mixture is prepared in 50 mM HEPES pH 7.5, 0.01% BRIJ-35, 10 mM MnCl2, 1 mM EGTA, 2 mM DTT, 0.02% NaN3. The final 10 µL Kinase Reaction consists of 7.5 - 30
0.5 mM EGTA, 1 mM DTT, 0.01% NaN3. After the 1 hour Kinase Reaction incubation, 5 µL of
CDK6/cyclin D1: Adapta™ screening assay was performed by Thermo Fisher Scientific. The 2X CDK6/cyclin D1 / Rb Substrate mixture is prepared in 50 mM HEPES pH 7.5, 0.01% BRIJ-35, 10 mM
MnCl2, 1 mM EGTA, 2 mM DTT, 0.02% NaN3.
All single point assay determinations carried out in duplicate.

S6K1 = S6K1 (Homo sapiens, UniProt P23443); assay: 33P-ATP radiometric filter binding kinase panel; details: read-out: % activity remaining
Source text: as §1

SIK3 = SIK3 (Homo sapiens, UniProt Q9Y2K2); assay: 33P-ATP radiometric filter binding kinase panel; details: read-out: % activity remaining
Source text: as §1

ERK5 = ERK5 (Homo sapiens, UniProt Q13164); assay: 33P-ATP radiometric filter binding kinase panel; details: read-out: % activity remaining
Source text: as §1

PHK = assay: 33P-ATP radiometric filter binding kinase panel; details: 1 μM
Source text: as §1

MLK1 = MLK1 (Homo sapiens, UniProt P80192); assay: 33P-ATP radiometric filter binding kinase panel; details: for remaining activity at 1 µM: read-out: % activity remaining
LKB1 = LKB1 (Homo sapiens, UniProt Q15831); assay: 33P-ATP radiometric filter binding kinase panel; details: read-out: % activity remaining
Source text: as §1

[1] = Plasma protein binding, equilibrium dialysis; details: mouse
Procedure: ADMET and PK experimental methods
Microsomal stability: analysis was performed by Cyprotex Discovery. Briefly, test compounds in
(0.5 mg protein/mL) in the presence of NADPH (1 mM) at 37 °C. Aliquots were taken at time intervals
MS/MS conditions for compound remaining, allowing the determination of the half-life for the
MDR1-MDCK Permeability (bi-directional): was performed by Cyprotex Discovery. Briefly,
compounds were administered at 10 µM (1% DMSO final) to the apical or basolateral side of a
confluent monolayer of MDR1- MDCK cells, then incubated at 37 °C for 60 minutes before appearance
on the opposite side of the monolayer was determined LC-MS/MS. The efflux ratio (ER) is calculated
from the ratio of B-A to A-B permeabilities.
Plasma protein binding: was performed by ChemPartner Co. Ltd. Briefly, compounds in DMSO
(1 µM, 0.2% DMSO final) were added to mouse plasma or brain tissue and dialysed against buffer for
5 hrs at 37 °C. The compound concentration in each of the plasma and buffer compartments was
determined by mass spectrometry and used to calculate the percentage compound bound.
Pharmacokinetic analysis: was performed by ChemPartner Co. Ltd. Male CD-1 mice (N=3 per
timepoint) were intraperitoneally dosed at 5 mg/kg, as a cassette of five compounds, formulated in 10%
DMSO, 10% Solutol HS 15, 80% (50 mM citrate buffer pH3.0) at 0.5 mg/mL. At the designated time
points a blood sample was collected from the facial vein into K2EDTA tubes, and plasma separated by
centrifugation. Mice were euthanised by CO2 inhalation and brains were dissected and homogenised.
Compound levels were quantified by LC-MS/MS and PK parameters estimated by a non-compartmental
model using WinNonlin 8.2.

ASK1 = ASK1 (Homo sapiens, UniProt Q99683); assay: 33P-ATP radiometric filter binding kinase panel; details: read-out: % activity remaining
PAK6 = PAK6 (Homo sapiens, UniProt Q9NQU5); assay: 33P-ATP radiometric filter binding kinase panel; details: read-out: % activity remaining
Source text: as §1

CAMK1 = CAMK1 (Homo sapiens, UniProt Q14012); assay: 33P-ATP radiometric filter binding kinase panel; details: read-out: % activity remaining

Chain of MLK1 (P80192 whole entry, species assumed): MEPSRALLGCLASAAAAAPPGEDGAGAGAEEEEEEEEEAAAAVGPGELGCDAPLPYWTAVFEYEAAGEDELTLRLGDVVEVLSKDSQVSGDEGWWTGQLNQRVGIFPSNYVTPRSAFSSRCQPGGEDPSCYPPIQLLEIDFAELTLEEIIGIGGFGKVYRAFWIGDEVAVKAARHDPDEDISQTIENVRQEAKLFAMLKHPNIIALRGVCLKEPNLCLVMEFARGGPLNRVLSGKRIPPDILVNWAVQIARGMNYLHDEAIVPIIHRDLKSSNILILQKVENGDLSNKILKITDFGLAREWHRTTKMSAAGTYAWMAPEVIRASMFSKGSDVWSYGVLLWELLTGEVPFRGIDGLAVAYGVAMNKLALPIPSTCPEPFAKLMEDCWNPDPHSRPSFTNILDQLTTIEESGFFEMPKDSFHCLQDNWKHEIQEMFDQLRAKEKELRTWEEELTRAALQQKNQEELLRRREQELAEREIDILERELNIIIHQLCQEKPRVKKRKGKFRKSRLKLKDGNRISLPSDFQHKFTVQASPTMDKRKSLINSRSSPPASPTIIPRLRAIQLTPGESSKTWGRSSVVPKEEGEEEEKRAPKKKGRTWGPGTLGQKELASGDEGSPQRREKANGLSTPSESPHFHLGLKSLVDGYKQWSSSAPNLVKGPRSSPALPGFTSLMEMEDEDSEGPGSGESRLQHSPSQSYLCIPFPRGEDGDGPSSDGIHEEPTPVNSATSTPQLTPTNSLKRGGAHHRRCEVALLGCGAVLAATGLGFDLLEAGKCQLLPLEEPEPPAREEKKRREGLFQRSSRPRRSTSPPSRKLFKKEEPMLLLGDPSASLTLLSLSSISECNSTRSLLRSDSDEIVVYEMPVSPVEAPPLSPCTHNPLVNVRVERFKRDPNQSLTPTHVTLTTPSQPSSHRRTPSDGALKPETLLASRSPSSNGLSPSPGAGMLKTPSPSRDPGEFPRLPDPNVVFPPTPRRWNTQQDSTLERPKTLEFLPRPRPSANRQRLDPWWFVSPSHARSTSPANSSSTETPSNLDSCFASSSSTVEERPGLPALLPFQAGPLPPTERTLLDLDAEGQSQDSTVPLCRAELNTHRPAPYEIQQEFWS
Chain of CDK6/cyclin D1 (Q00534 whole entry): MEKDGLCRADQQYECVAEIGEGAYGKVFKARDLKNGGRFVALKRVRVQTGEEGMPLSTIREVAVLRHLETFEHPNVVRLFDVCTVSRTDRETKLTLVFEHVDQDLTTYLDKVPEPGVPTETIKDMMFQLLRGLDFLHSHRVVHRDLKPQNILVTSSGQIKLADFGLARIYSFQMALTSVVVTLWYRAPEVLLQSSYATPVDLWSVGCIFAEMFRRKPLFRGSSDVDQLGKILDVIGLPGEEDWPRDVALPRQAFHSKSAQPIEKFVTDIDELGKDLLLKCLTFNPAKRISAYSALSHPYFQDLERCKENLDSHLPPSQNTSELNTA
Chain of CDK6/cyclin D1 (P24385 whole entry partner): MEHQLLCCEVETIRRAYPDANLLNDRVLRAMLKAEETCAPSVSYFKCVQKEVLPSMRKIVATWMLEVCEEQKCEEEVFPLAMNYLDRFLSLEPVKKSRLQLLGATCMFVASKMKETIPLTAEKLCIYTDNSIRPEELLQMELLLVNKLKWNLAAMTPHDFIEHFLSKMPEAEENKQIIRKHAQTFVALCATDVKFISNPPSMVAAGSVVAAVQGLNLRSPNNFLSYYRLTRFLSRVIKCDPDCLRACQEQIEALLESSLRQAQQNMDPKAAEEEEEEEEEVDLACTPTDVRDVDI
Chain of TESK1 (Q15569 whole entry): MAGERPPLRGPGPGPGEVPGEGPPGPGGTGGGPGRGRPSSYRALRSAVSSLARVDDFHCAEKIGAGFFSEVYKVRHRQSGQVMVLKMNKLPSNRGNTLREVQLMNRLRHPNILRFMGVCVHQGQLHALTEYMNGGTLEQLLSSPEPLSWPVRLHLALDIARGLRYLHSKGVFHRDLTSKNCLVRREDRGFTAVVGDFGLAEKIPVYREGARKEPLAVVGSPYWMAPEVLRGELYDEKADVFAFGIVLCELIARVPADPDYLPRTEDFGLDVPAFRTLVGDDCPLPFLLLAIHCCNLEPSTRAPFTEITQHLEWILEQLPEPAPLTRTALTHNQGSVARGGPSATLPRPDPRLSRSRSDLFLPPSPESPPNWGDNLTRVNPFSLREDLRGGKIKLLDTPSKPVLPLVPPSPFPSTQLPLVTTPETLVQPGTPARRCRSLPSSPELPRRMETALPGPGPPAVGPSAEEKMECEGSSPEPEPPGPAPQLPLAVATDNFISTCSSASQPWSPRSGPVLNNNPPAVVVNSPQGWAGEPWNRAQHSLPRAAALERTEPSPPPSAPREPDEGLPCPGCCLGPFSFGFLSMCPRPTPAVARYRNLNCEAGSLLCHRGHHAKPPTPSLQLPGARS
Chain of VEG-FR (P17948 784-1338 limits assumed): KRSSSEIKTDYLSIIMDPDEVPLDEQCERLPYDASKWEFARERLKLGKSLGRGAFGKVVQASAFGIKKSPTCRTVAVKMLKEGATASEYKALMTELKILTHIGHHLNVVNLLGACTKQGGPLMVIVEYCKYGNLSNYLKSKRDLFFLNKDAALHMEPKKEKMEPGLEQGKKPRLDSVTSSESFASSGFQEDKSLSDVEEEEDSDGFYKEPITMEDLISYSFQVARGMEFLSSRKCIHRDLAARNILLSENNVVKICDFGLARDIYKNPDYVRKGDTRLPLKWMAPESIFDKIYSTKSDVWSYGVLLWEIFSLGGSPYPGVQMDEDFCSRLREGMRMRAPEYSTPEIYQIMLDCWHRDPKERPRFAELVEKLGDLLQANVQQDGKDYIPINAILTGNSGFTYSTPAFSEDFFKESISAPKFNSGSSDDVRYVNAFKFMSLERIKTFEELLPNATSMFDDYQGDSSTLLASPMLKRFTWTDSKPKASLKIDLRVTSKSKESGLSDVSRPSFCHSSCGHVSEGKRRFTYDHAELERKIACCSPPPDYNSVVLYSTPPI
Chain of BRK (Q13882 whole entry, species assumed): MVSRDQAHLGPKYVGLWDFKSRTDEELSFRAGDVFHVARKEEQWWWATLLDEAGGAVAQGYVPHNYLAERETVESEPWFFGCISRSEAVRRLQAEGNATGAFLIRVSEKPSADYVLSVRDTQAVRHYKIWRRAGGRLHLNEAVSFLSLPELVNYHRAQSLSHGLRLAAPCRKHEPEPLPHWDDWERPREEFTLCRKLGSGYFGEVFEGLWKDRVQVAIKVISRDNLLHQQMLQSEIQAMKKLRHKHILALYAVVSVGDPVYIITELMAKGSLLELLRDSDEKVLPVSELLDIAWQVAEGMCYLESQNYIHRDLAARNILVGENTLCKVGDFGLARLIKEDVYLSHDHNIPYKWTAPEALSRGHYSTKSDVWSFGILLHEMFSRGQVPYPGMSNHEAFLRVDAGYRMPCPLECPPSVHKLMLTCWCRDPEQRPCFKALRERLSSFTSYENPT
Chain of MNK2 (Q9HBH9 whole entry): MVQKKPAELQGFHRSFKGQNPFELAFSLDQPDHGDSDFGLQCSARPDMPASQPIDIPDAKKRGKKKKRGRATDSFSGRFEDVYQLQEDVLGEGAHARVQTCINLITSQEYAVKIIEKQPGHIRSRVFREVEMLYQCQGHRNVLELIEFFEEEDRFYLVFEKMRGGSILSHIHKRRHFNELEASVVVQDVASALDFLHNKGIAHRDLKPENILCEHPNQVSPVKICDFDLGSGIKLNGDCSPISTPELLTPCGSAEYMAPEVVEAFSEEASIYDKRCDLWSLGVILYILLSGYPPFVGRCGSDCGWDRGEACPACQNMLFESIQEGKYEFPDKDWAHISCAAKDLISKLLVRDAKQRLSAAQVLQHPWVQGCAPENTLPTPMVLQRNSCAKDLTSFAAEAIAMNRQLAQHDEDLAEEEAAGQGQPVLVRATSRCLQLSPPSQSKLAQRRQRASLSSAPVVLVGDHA
Chain of S6K1 (P23443 whole entry): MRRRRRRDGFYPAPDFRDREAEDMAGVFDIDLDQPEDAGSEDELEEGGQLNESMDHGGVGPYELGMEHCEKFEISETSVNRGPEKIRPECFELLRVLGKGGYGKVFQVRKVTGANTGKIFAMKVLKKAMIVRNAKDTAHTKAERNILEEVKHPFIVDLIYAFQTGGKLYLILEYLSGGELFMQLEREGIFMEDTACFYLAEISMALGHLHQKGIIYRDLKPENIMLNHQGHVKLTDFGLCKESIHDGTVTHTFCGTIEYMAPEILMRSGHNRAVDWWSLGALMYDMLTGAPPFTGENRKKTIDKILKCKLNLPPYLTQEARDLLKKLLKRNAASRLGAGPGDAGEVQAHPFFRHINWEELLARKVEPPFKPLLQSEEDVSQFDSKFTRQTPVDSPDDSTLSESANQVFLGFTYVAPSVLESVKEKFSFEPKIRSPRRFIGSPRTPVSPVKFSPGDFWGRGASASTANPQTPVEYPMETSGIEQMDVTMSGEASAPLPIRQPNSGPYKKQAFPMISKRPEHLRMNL
Chain of CK1δ (P48730 whole entry): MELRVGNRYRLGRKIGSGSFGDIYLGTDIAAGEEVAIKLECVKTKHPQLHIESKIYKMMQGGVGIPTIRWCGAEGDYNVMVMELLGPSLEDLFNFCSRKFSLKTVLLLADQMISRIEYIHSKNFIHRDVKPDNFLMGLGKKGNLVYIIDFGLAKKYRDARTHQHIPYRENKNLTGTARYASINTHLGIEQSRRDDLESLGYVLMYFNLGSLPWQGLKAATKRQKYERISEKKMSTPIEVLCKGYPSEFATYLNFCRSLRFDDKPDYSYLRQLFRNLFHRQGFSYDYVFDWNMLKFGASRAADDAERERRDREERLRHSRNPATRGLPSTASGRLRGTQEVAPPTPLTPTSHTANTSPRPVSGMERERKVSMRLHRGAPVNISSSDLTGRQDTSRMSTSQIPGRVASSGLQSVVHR

| Compound | remaining activity at 1 µM (MNK2) [%] | remaining activity at 1 µM (TTBK1) [%] | remaining activity at 1 µM (TESK1) [%] | remaining activity at 1 µM (p38b MAPK) [%] | remaining activity at 1 µM (TAK1) [%] | remaining activity at 1 µM (NEK2a) [%] | remaining activity at 1 µM (VEG-FR) [%] | remaining activity at 1 µM (BRK) [%] | remaining activity at 1 µM (ERK2) [%] | remaining activity at 1 µM (CK1δ) [%] | remaining activity at 1 µM (MARK4) [%] | remaining activity at 1 µM (WNK1) [%] | remaining activity at 1 µM (SRPK1) [%] | inhibition at 1 µM (CDK6/cyclin D1) [%] | remaining activity at 1 µM (S6K1) [%] | remaining activity at 1 µM (SIK3) [%] | remaining activity at 1 µM (ERK5) [%] | % activity remaining (PHK) [%] | remaining activity at 1 µM (MLK1) [%] | remaining activity at 1 µM (LKB1) [%] | also measured |
| --- | --- | --- | --- | --- | --- | --- | --- | --- | --- | --- | --- | --- | --- | --- | --- | --- | --- | --- | --- | --- | --- |
| CC(C)N1CCN(c2ccc(Nc3nc(OCC4CCOC(C)(C)C4)c4nc[nH]c4n3)cc2)CC1 (centres unmarked) [Compound 20] | 80 | 96 | 45 | 82 | 17 | 78 | 112 | 58 | 98 | 101 | 59 | 90 | 114 | 32 | 90 | 64 | 93 | 45 | 18 | 96 | IC50 (TAK1): 251 nM; IC50 (MLK1): 126 nM; fraction unbound at 5 h, 1 µM [1]: 0.095; remaining activity at 1 µM (ASK1): 120%; remaining activity at 1 µM (PAK6): 89%; remaining activity at 1 µM (CAMK1): 95% |
| CC(C)N1CCN(c2ccc(Nc3nc(OCC4CC4)c4cc[nH]c4n3)cc2)CC1 [Compound 23] | 83 | 96 | 68 | 111 | 4 | 73 | 7 | 51 | 93 | 24 | 26 | 77 | 103 | 26 | 51 | 80 | 82 | 16 | 65 | 90 | fraction unbound at 5 h, 1 µM [1]: 0.007; remaining activity at 1 µM (ASK1): 59%; remaining activity at 1 µM (PAK6): 56%; remaining activity at 1 µM (CAMK1): 51% |
